Laboratory results from patent US10793544B2, “Disubstituted and trisubstituted 1,2,3-triazoles as Wnt inhibitors” (The Board of Regents of the University of Texas System, priority 2016, dated 2020).

Columns and labels:
[1] = system: Wnt/b-catenin pathway activity in L-Wnt-STF cells; test: Suppression of Wnt signaling in L-Wnt-STF cells (Firefly luciferase reporter); format: cell-based
Procedure: Chemical synthesis is described below in Example 3. L-Wnt-STF cells (Chen, et al., 2009) were seeded into each well of a white opaque 96-well plate and compounds added immediately thereafter. Luciferase activities (Firefly luciferase for Wnt/b-catenin pathway activity and Renilla luciferase activity as an irrelevant cell signal) were measured using a previously reported protocol (Wang, et al., 2013).
Additional IWPs to suppress Wnt signaling in L-Wnt-STF cells were synthesized and tested for their ability to suppress Wnt signaling as described above. The relevant data for some of the compounds are shown below in Table 1.

[2] = system: Dvl2/3 phosphorylation; test: Western blot for biochemical markers of Wnt signaling in Hela cells: Dvl2/3 phosphorylation; format: cell-based; settings: incubated 24 h, Western blot (FIG. 2)
Text: (§1) Cell lysates were then subjected to Western blot analysis for biochemical markers of Wnt signaling (LRP6 and Dvl2/3 phosphorylation).
(§2) Dishevelled (Dvl) phosphorylation is associated with both canonical and non-canonical Wnt signaling pathways.

[3] = system: LRP6 phosphorylation; test: Western blot for biochemical markers of Wnt signaling in Hela cells: LRP6 phosphorylation; format: cell-based; settings: incubated 24 h, Western blot (FIG. 2)
Text: as §1, §2

[4] = system: Axin2 expression; settings: DLD-1 cells, exposure for 2 h; cited from earlier work

With Cc1cc(-n2nnc(CC(=O)Nc3ccc(-c4ccccc4)cn3)c2-c2ccccc2)ccn1 the EC50 ([1]; alternative substitution pattern of the triazole) was 0.1 nM.
In the case of O=C(Cn1nnc(-c2ccncc2)c1-c1ccccc1)Nc1ccc(-c2ccccc2)cn1 [IWP-O1, 2-(5-Phenyl-4-(pyridin-4-yl)-1H-1,2,3-triazol-1-yl)-N-(5-phenylpyridin-2-yl)acetamide], the “phosphorylation of Dvl2/3” value [2] is reported as “effectively suppressed” and the “phosphorylation of LRP6” value [3] is reported as “suppressed”.
For O=C(Nc1cccc2cccnc12)c1ccc(N2C(=O)[C@@H]3[C@H](C2=O)[C@@H]2C=C[C@H]3C2)cc1 [IWR-1], the “expression of Axin2” value [4] is listed as “decrease”.
With Cc1cc(-c2ncc(CC(=O)Nc3ccc(-c4cnccn4)cn3)cc2C)ccn1 [LGK974, reference compound] the EC50 ([1]; Table 1 triazole substituent screening, L-Wnt-STF cells, normalized to LGK974 control) was 0.2 nM.
